These are literature values, as cited in patent US20150320096A1, “Dietary Supplement” (MC Corp., priority 2013, published 2015).

For series [1] the following is noted: oral.
The conditions of series [2]: oral administration.
A further series has as its system glut-4 transporters. The settings on record: muscle tissue.

In the case of `COC1=C(OC)C(=O)C(C/C=C(\C)CC/C=C(\C)CC/C=C(\C)CC/C=C(\C)CC/C=C(\C)CC/C=C(\C)CC/C=C(\C)CC/C=C(\C)CC/C=C(\C)CCC=C(C)C)=C(C)C1=O` [coenzyme Q10, Coenzyme Q10], for the setting “dietary supplementation”, the blood glucose levels entry was “significantly reduce” and the “hemoglobin A1C (HbA1C)” value is given as “lower”. For the same molecule, the “increase of plasma coenzyme Q10” value (dietary supplementation, patients with diabetes) was “at least 3 fold”. Further, for the setting “patients with diabetes”, the blood pressure result is recorded as “significantly lowered” and the insulin requirements entry is on record as “reduce”.

`C/C1=C2/[N-][C@H]([C@H](CC(N)=O)[C@@]2(C)CCC(=O)NC[C@@H](C)OP(=O)([O-])O[C@H]2[C@@H](O)[C@@H](n3cnc4cc(C)c(C)cc43)O[C@@H]2CO)[C@]2(C)N=C(/C(C)=C3N=C(/C=C4N=C1[C@@H](CCC(N)=O)C\4(C)C)[C@@H](CCC(N)=O)[C@]\3(C)CC(N)=O)[C@@H](CCC(N)=O)[C@]2(C)CC(N)=O.[CH3-].[Co+3]` [Methylcobalamin]: the “ingested dose absorbed by diffusion process” value in series [1] was “approximately 1%”. Moreover, the “burning sensations, numbness, loss of sensation, and muscle cramps” value in series [2] is reported as “subjective improvement”.

As to `O=C(O)CCCCC1CCSS1` (stereo not drawn) [ALA, Alpha-Lipoic Acid], in the series with glut-4 transporters, the “increase in the number of glut-4 transporters on the outside of the muscle cells” value is on record as at most 50%.
